Results reported in the supplement of paper PMC9701192.
± gives the uncertainty stated by the source.

What was measured:
Assay in all cases: mass response relative to vehicle control (EMD distance of treated vs reference mass distribution minus control baseline) (% of mean reference cell mass); higher = larger drug-induced change in single-cell mass distribution (stronger response)
[1] = test system: MOLM-13
Method: (§1)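 Cancer cell lines were treated in vitro with drugs at the listed doses (about 24 h; 0.25% DMSO vehicle). Single-cell buoyant mass was measured on suspended microchannel resonator instruments with CNN image curation, 2500 cells per condition. Mass response is the Earth Mover's Distance to vehicle-treated reference cells as % of mean reference mass.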

[2] = test system: PC9
Method: as §1

[3] = test system: MM1S ATCC
Method: as §1

[4] = test system: MDA-MB-361
Method: as §1

With Nc1ncn([C@H]2C[C@H](O)[C@@H](CO)O2)c(=O)n1 [Decitabine] the mass response ([1]; 0.25 µM) was 7.58 ± 1.9, the mass response ([1]; 2.5 µM) was 9.65 ± 3.3 and the mass response ([1]; 25 µM) was 9.39 ± 2.4. It also gave a mass response ([1]; 0.00025 M) of 8.64 ± 2.2.
CNC(=O)c1cc(Oc2ccc(NC(=O)Nc3ccc(Cl)c(C(F)(F)F)c3)cc2)ccn1 [Sorafenib] showed a mass response ([1]; 0.0005 µM) of -1.17 ± 0.94, a mass response ([1]; 0.005 µM) of 10.6 ± 1 and a mass response ([1]; 0.05 µM) of 32 ± 0.86. The mass response ([1]; 0.5 µM) was 35.2 ± 0.46.
CN(C)C/C=C/C(=O)Nc1cc2c(Nc3ccc(F)c(Cl)c3)ncnc2cc1O[C@H]1CCOC1 [Afatinib] gave a mass response ([2]; 0.01 µM) of 13.3 ± 4, a mass response ([2]; 0.1 µM) of 15.8 ± 1.3 and a mass response ([2]; 1 µM) of 19.1 ± 1.6. For the same compound, the mass response ([2]; 10 µM) was 30.7 ± 4.
CC(=O)O[C@@]12CO[C@@H]1C[C@H](O)[C@@]1(C)C(=O)[C@H](O)C3=C(C)[C@@H](OC(=O)[C@H](O)[C@@H](NC(=O)OC(C)(C)C)c4ccccc4)C[C@@](O)([C@@H](OC(=O)c4ccccc4)[C@H]21)C3(C)C [Docetaxel] showed a mass response ([2]; 0.001 µM) of 0.63 ± 3.4, a mass response ([2]; 0.0025 µM) of 5.56 ± 2.2 and a mass response ([2]; 0.005 µM) of 12.4 ± 1.8. The mass response ([2]; 0.01 µM) was 25.2 ± 4.1.
N[C@@H](Cc1ccc(N(CCCl)CCCl)cc1)C(=O)O [Melphalan] was tested, and the mass response ([3]; 0.1 µM) was 9.64 ± 4.4, the mass response ([3]; 1 µM) was 17.5 ± 4.6 and the mass response ([3]; 10 µM) was 12.9 ± 2.5. The mass response ([3]; 50 µM) was 29.6 ± 1.6.
In the case of CC(C)C[C@H](NC(=O)CNC(=O)c1cc(Cl)ccc1Cl)B(O)O [Ixazomib], the mass response ([3]; 0.00025 µM) is reported as 2.33 ± 1.5, the mass response ([3]; 0.0025 µM) is reported as -0.705 ± 2.2 and the mass response ([3]; 0.025 µM) is reported as 10.7 ± 0.64. The mass response ([3]; 0.25 µM) was 9.05 ± 2.4.
Compound CO[C@@H]1[C@H](N(C)C(=O)c2ccccc2)C[C@H]2O[C@]1(C)n1c3ccccc3c3c4c(c5c6ccccc6n2c5c31)C(=O)NC4 [Midostaurin] has a mass response ([1]; 0.02 µM) of 14.9 ± 0.91, a mass response ([1]; 0.2 µM) of 38.7 ± 1.5 and a mass response ([1]; 2 µM) of 27.7 ± 0.98. For the same compound, the mass response ([1]; 20 µM) was 30.2 ± 2.4.
For CC(C)C[C@H](NC(=O)[C@H](CCc1ccccc1)NC(=O)CN1CCOCC1)C(=O)N[C@@H](Cc1ccccc1)C(=O)N[C@@H](CC(C)C)C(=O)[C@@]1(C)CO1 [Carfilzomib], the mass response ([3]; 0.005 µM) was 10.7 ± 4.9, the mass response ([3]; 0.05 µM) was 31 ± 2.6 and the mass response ([3]; 0.1 µM) was 34.7 ± 2. For the same compound, the mass response ([3]; 0.5 µM) was 33.4 ± 2.5.
Work on COc1cc(N2CCC(N3CCN(C)CC3)CC2)ccc1Nc1ncc(Cl)c(Nc2ccccc2P(C)(C)=O)n1 [Brigatinib] yielded a mass response ([2]; 0.1 µM) of 1.59 ± 3.9, a mass response ([2]; 0.5 µM) of 22.4 ± 1.5 and a mass response ([2]; 1 µM) of 33.6 ± 2.4. It also gave a mass response ([2]; 10 µM) of 51.3 ± 5.4.
Cc1nc(NC(=O)N2CCC[C@H]2C(N)=O)sc1-c1ccnc(C(C)(C)C(F)(F)F)c1 [Alpelisib] showed a mass response ([4]; 0.05 µM) of 7.91 ± 1.6, a mass response ([4]; 0.5 µM) of 16.4 ± 0.24 and a mass response ([4]; 5 µM) of 39.9 ± 5.9. It also gave a mass response ([4]; 50 µM) of 62.6 ± 1.8.
CNC(=O)c1cc(Oc2ccc(NC(=O)Nc3ccc(Cl)c(C(F)(F)F)c3)c(F)c2)ccn1 [Regorafenib] gave a mass response ([3]; 0.04 µM) of 1.84 ± 1.4, a mass response ([3]; 0.4 µM) of 0.733 ± 1.4 and a mass response ([3]; 4 µM) of 10.9 ± 0.83. The mass response ([3]; 20 µM) was 44.9 ± 2.9.
Compound C#Cc1cccc(Nc2ncnc3cc(OCCOC)c(OCCOC)cc23)c1 [Erlotinib] has a mass response ([2]; 0.01 µM) of 0.55 ± 1.1, a mass response ([2]; 0.1 µM) of 15.4 ± 1.5 and a mass response ([2]; 1 µM) of 17.2 ± 0.41. The mass response ([2]; 10 µM) was 24.6 ± 1.6.
With Nc1ncn([C@@H]2O[C@H](CO)[C@@H](O)[C@H]2O)c(=O)n1 [5-Azacytidine] the mass response ([1]; 0.1 µM) was 1.27 ± 0.26, the mass response ([1]; 1 µM) was 10.1 ± 1.9 and the mass response ([1]; 10 µM) was 35.2 ± 2.8. It also gave a mass response ([1]; 0.0001 M) of 36.45 ± 0.22.
For C=CC(=O)Nc1cc(Nc2nccc(-c3cn(C)c4ccccc34)n2)c(OC)cc1N(C)CCN(C)C [Osimertinib], the mass response ([2]; 0.05 µM) was 11.8 ± 3, the mass response ([2]; 0.5 µM) was 9.37 ± 6.4 and the mass response ([2]; 5 µM) was 7.62 ± 2.4. The mass response ([2]; 50 µM) was 65.8 ± 0.9.
COc1cccc2c1C(=O)c1c(O)c3c(c(O)c1C2=O)C[C@@](O)(C(C)=O)C[C@@H]3O[C@H]1C[C@H](N)[C@H](O)[C@H](C)O1 [Daunorubicin] showed a mass response ([1]; 0.01 µM) of 3.77 ± 1.2, a mass response ([1]; 0.1 µM) of 22.3 ± 2.7 and a mass response ([1]; 1 µM) of 31.1 ± 1.9. The mass response ([1]; 10 µM) was 45.8 ± 2.6.
In the case of Nc1cccc2c1C(=O)N(C1CCC(=O)NC1=O)C2=O (stereo unspecified) [Pomalidomide], the mass response ([3]; 0.02 µM) is reported as 8.45 ± 2.3, the mass response ([3]; 0.2 µM) is reported as 18.1 ± 5.3 and the mass response ([3]; 2 µM) is reported as 17.1 ± 5.7. It also gave a mass response ([3]; 20 µM) of 16.7 ± 3.2.
CC(C)(C)c1cc(NC(=O)Nc2ccc(-c3cn4c(n3)sc3cc(OCCN5CCOCC5)ccc34)cc2)no1 [Quizartinib] showed a mass response ([1]; 0.0001 µM) of 1.17 ± 1.9, a mass response ([1]; 0.001 µM) of 16.3 ± 0.82 and a mass response ([1]; 0.01 µM) of 27 ± 0.32. The mass response ([1]; 0.1 µM) was 25.8 ± 0.77.
O=C(O)C1(C(=O)O)CCC1.[NH2-].[NH2-].[Pt+2] [Carboplatin] showed a mass response ([2]; 0.1 µM) of -0.849 ± 1.3, a mass response ([2]; 1 µM) of 1.45 ± 5.4 and a mass response ([2]; 10 µM) of 11.1 ± 3.2. It also gave a mass response ([2]; 0.0001 M) of 25.9 ± 5.4.
Work on COc1cccc2c1C(=O)c1c(O)c3c(c(O)c1C2=O)C[C@@](O)(C(=O)CO)C[C@@H]3O[C@H]1C[C@H](N)[C@@H](O)[C@H](C)O1 [Epirubicin] yielded a mass response ([4]; 0.15 µM) of 10.2 ± 1.1, a mass response ([4]; 0.625 µM) of 10.7 ± 0.92 and a mass response ([4]; 2.5 µM) of 8.33 ± 2.5. It also gave a mass response ([4]; 10 µM) of 13.1 ± 3.1.
